According to patent US7507749B2, “Antitumor agents” (priority 2001, dated 2009):
“And” between values parts separate entries of the source, which are not always exact repeats. Equal values may be shown once. Read-outs that look alike come from different tables or passages of the source.

Experiments:
[1] = tested on: pancreatic ductal adenocarcinoma 03; conditions: historic; cited from earlier work
[2] = tested on: B16 melanoma; conditions: historic, B16 melanoma implanted subcutaneously (SC); cited from earlier work
[3] = tested on: mammary adenocarcinoma-16/C; assay: Test F: R-enantiomers of 22b and 22c against early staged mammary adenocarcinoma-16/C; type: in vivo, C3H female mice; conditions: Cage 11, IV 7.5 mg/kg/inj days 1,5, total 15 mg/kg
Procedure: C3H female mice were obtained from N.C.I. (D.O.B. was […]; D.O.A. was Jan. 27, 2001). The mice weighed an average of 19.2 gm. Mice were implanted SC with mammary adenocarcinoma-16/C passage-170, a fast growing, highly invasive, highly metastatic tumor (D.O.T. was Mar. 8, 2001; Td was 1.2 days).
The R-enantiomers of both Compound 22c and Compound 22b were each suspended in 3% ethanol, 1% POE-80, 0.5% sodium bicarbonate (by volume) to effect solution, P.B.S. was then added and the pH adjusted to 7 with HCl. Adriamycin (ADRIA; lot number 20338c) was suspended in dH2O to effect solution and the pH was adjusted to 6.0. Mice were administered 0.2 ml per IV injection.

[4] = tested on: pancreatic ductal adenocarcinoma-03; type: in vivo; conditions: Cg 8 in table (Cage 13 in text); IV 7.5 mg/kg/inj days 6,14; total 15 mg/kg
Procedure: BDF1 female mice were obtained from N.C.I., CRL-Ral (D.O.B. was Feb. 26, 2001; D.O.A. was Mar. 10, 2001). The mice weighed an average of 22.5 gm. Mice were implanted SC with pancreatic ductal adenocarcinoma-03 passage 143. (D.O.T. was May 29, 2001; Td was 2.3 days).
The R-enantiomer of compound 22c was suspended in 3% ethanol, 1% POE-80, 0.25% sodium bicarbonate (by volume) to effect solution. dH2O was then added, and the pH adjusted to 7 with HCl. […] The R-enantiomer of compound 22b was suspended in 3% ethanol, 1% POE-80, 0.5% sodium-bicarbonate (by volume) to effect solution. Then, dH2O was added, and the pH adjusted to 7.5 with HCl. […] Adriamycin (source ADRIA; lot 2033BC) was suspended in dH2O to effect solution, and the pH was 6.0.
Treatment began six days following implant, at which time the tumors were palpable size (126 mg median). The duration of treatment was prolonged (18 days) in order to obtain a clear separation in efficacy between the compounds.

[5] = tested on: mammary adenocarcinoma-16/C/Adr; assay: Test C: evaluation against early stage mammary adenocarcinoma-16/C/Adr; type: in vivo
Text: Early stage mammary adenocarcinoma-16/C/Adr is a p-glycoprotein negative multidrug resistant tumor. C3H female mice were obtained from NCI-Kingston-CRL (D.O.B. Apr. 3, 2000; D.O.A. May 16, 2000). […] The control animals (Cage #1) received no treatment.

[6] = tested on: colon carcinoma 26
Procedure: In this trial the R-enantiomers of XK-469, compound 22c, and compound 22b were compared against advanced staged colon carcinoma 26 in female Balb/c mice. […] Cage #2 was 22b at 400 mg/kg and Cage #4 was 22c at 400 mg/kg.
The XK469-R, 22b, and 22c compound doses were all prepared the same, using 3% ethanol, 1% POE-80, and 0.5% sodium bicarbonate. The injection volume was 0.2 mu/mouse IV. […] The mice were Balb/c female mice: DOB Feb. 12, 2001; DOA Mar. 27, 2001; DOT Sep. 8, 2001, with an average body weight of 24.7 grams at the start of Rx administration. The tumor was Colon Carcinoma-26 passage 141; date of implant Sep. 8, 2001, and implanted at 30 to 60 mg fragments bilaterally SC. All tumors were 63 to 171 mg on day 6, the day of first Rx.

[7] = tested on: pancreatic ductal adenocarcinoma 03
Text: Pancreatic ductal adenocarcinoma-03, B16-melanoma, mammary adenocarcinoma-16/C/Adr, mammary adenocarcinoma-17/Adr, colon adenocarcinoma-26, and mammary adenocarcinoma-16/C were used in the studies.
(§1) Tumors were maintained in the mouse strain of origin C57B1/6 (for Panc03, B16), Balb/c (for Colon 26) and C3H (for the mammary tumors). Tumors were transplanted into the appropriate F1 hybrid (BDF1=C57B1/6 female X DBA/2 male) or the strain of origin for the chemotherapy trials. Individual mouse body weights for each experiment were within 5 grams, and all mice were over 17 grams at the start of therapy. The mice were supplied food and water ad libitum.
(§2) Animals were pooled, implanted subcutaneously with 30 to 60 mg tumor fragments by a 12 gauge trocar on day 0, and again pooled before unselective distribution to the various treatment and control groups. For early stage treatment, chemotherapy was started within 1 to 3 days after tumor implantation while the number of cells was relatively small (10^7 to 10^8 cells). For upstaged or advanced staged trials, the tumors were allowed to grow for five or more days before treatment was started. Tumors were measured with a caliper twice weekly. […] Tumor weights are estimated from two-dimensional measurements:
(§3) Tumor weight (in mg)=(a×b^2)/2, where a and b are the tumor length and width in (mm), respectively.
(§4) The following quantitative endpoints were used to assess antitumor activity: • a) Tumor growth delay (T-C value), where T is the median time (in days) required for the treatment group tumors to reach a predetermined size (e.g., 1000 mg), and C is the median time (in days) for the control group tumors to reach the same size. Tumor-free survivors are excluded from these calculations (cures are tabulated separately). This value is an important criterion of antitumor effectiveness because it allows the quantification of tumor cell kill. • b) Calculation of tumor cell kill for subcutaneously (SC) growing tumors, the log10 cell kill was calculated from the following formula:
(§5) The conversion of the T-C values to log10 cell kill is possible because the Td of tumors regrowing post treatment (Rx) approximates the Td values of the tumors in untreated control mice.
In selected cases, both for historic in vivo evaluation data as well as data presented here, it is of value to compare log kill numbers from trials of markedly different testing schedules. […] It should be noted that an activity rating of +++ to ++++ is needed to effect partial regression (PR) or complete regression (CR) of 100 to 300 mg size masses of most transplanted solid tumors of mice. Thus, an activity rating of + or ++ would not be scored as active by usual clinical criteria. A PR is a reduction in tumor mass to less than 50% of pretreatment size. A CR is a reduction in tumor mass to below palpable size (i.e., reduction to zero detectable mass).
(§6) The T/C value in percent is an indication of antitumor effectiveness: A T/C=0% means no tumor growth. […] A T/C value <10% is considered to indicate highly significant antitumor activity, and is the level used by NCI to justify a clinical trial if toxicity, formulation, and certain other requirements are met (termed DN-2 level activity).
Female BDFl mice (obtained from NCI-Raleigh) (date of birth (hereinafter D.O.B.) Mar. 27, 2000; date of arrival (hereinafter D.O.A.) Apr. 9, 2000) were implanted (tumor implant date (hereinafter D.O.T.) Mar. 17, 2000) with pancreatic ductal adenocarcinoma 03 tumor, divided into treatment and control groups.

[8] = tested on: B16 melanoma
Text: as §1, §2, §3, §4, §5
It should be noted that an activity rating of +++ to ++++ is needed to effect partial regression (PR) or complete regression (CR) of 100 to 300 mg size masses of most transplanted solid tumors of mice. Thus, an activity rating of + or ++ would not be scored as active by usual clinical criteria. A PR is a reduction in tumor mass to less than 50% of pretreatment size. A CR is a reduction in tumor mass to below palpable size (i.e., reduction to zero detectable mass).
as §6
The mice were divided into a control group and three experimental groups. The control group (Cage #1) received no treatment.
A −20% body weight loss is considered excessively toxic by N.C.I. standards.

[9] = Cage 2, IV 42 mg/kg twice daily days 1-3 and 11-13, total 504 mg/kg
[10] = Cage 3, IV 27 mg/kg twice daily days 1-3 and 11-13, total 324 mg/kg
[11] = Cg 3, IV 50 mg/kg/inj days 6,8,10,13,15, total 250 mg/kg
[12] = Cage 7, IV daily days 3-9, 7 inj, total 336 mg/kg
[13] = Cage 2, IV 40 mg/kg/inj days 1-4, 8 inj, total 320 mg/kg
[14] = Cage 3, IV 50 mg/kg/inj daily days 1-5, total 250 mg/kg
[15] = Cage 4, IV 30 mg/kg/inj daily days 1-6, total 180 mg/kg

O=c1[nH]cc(F)c(=O)[nH]1 [Compound 5-FU, 5-FU]
activity rating (sensitivity of the tumor to standard agents) [1]: + (0.7-1.2)

CC(=O)O[C@H]1C(=O)[C@@]2(C)[C@H]([C@H](OC(=O)c3ccccc3)[C@]3(O)C[C@H](OC(=O)[C@H](O)[C@@H](NC(=O)c4ccccc4)c4ccccc4)C(C)=C1C3(C)C)[C@]1(OC(C)=O)CO[C@@H]1C[C@@H]2O [taxol]
activity rating (sensitivity of the tumor to standard agents) [1]: ++++ (>2.8)
activity rating (responsiveness of the tumor to standard agents) [2]: +or +/−

O=NN(CCCl)C(=O)NCCCl [BCNU]
activity rating (responsiveness of the tumor to standard agents) [2]: ++++ (>2.8)

COc1cccc2c1C(=O)c1c(O)c3c(c(O)c1C2=O)C[C@@](O)(C(=O)CO)C[C@@H]3O[C@H]1C[C@H](N)[C@H](O)[C@H](C)O1 [Adriamycin, reference compound]
% Body Wt Loss at Nadir [3]: 0%
% T/C mass [3]: 0%
Day of Nadir [3]: 8 days
Drug Deaths [3]: 1/5
Growth Delay [3]: 12.0 days
Log Kill [3]: 3.6
Median Tumor Mass on Day 10 (Range) [3]: 0 mg
Median time for tumors to 1000 mg (range) [3]: 21.5 (17-27.5) days
Tumor Free day-155 [3]: 0/5
% Body Wt Loss at Nadir ([3]; listed as adriamycin): no body weight loss
% T/C mass ([3]; listed as adriamycin): 0%
Activity Rating ([3]; listed as adriamycin): ++++ (>2.8)
Drug Deaths ([3]; listed as adriamycin): one delayed drug-death
% Body Wt change between day 6 and day 24 [4]: −5.4%
% T/C mass [4]: 17.0%
Activity Rating [4]: +++ (2.0-2.8)
CR's [4]: 1/5
Drug Deaths [4]: 0/5
Growth Delay [4]: 17.5 days
Log Kill [4]: 2.3
Median Tumor Mass on Day 24 (Range) [4]: 383 mg
Median time for tumors to 1,000 mg (range) [4]: 34 days
PR's [4]: 1/5
Tumor Free day-157 [4]: 0/5
activity rating (sensitivity of the tumor to standard agents) [1]: +++ (2.0-2.8)
activity rating (responsiveness of the tumor to standard agents) [2]: +or +/−

COc1ccc2ccc(Oc3ccc(OC(C)C(=O)O)cc3)nc2c1 (stereo not drawn)
melting point: 164 to 166 °C

CC(Oc1ccc(Oc2ccc3ccc(Cl)cc3n2)cc1)C(=O)O (racemic) [Compound 22b, 2-[4-(7-chloroquinolin-2-yloxy)phenoxy]propanoic acid]
% Body Wt Loss at Nadir [5, 9]: −15%
% T/C mass [5, 9]: 0%
Activity Rating [5, 9]: +++ (2.0-2.8)
Day of Nadir [5, 9]: 7 days
Day of full recovery of body weight [5, 9]: 12 days
Drug Deaths [5, 9]: 0/6
Growth Delay [5, 9]: 8.0 days
Log Kill [5, 9]: 2.0
Median Tumor Mass on Day 11 (Range) [5, 9]: 0 (0-308) mg
Tumor Free day-18 [5, 9]: 0/6
Neuromuscular toxicity ([5]; Cage 2, IV 42 mg/kg twice daily, lasting about ten minutes post injection): modest neuromuscular gait disturbance
Neuromuscular toxicity ([5]; Cage 3, IV 27 mg/kg twice daily): insignificant gait disturbance
% Body Wt Loss at Nadir [5, 10]: −1.1%
% T/C mass [5, 10]: 53%
Activity Rating [5, 10]: inactive
Day of Nadir [5, 10]: 7 days
Day of full recovery of body weight [5, 10]: 8 days
Drug Deaths [5, 10]: 0/6
Growth Delay [5, 10]: 2.25 days
Log Kill [5, 10]: 0.6
Median Tumor Mass on Day 11 (Range) [5, 10]: 741 (516-1199) mg
Tumor Free day-18 [5, 10]: 0/6
Toxicity of dose group ([6]; Cage 2, 400 mg/kg, omitted from Table 8): toxic
Activity Rating [6, 11]: ++ (1.3-1.9)
CR's [6, 11]: 1/6
Log Kill [6, 11]: 1.4
% T/C mass [7, 12]: 0%
Activity Rating [7, 12]: +++ (2.0-2.8)
Drug Deaths [7, 12]: 0/5
Growth Delay In Days [7, 12]: 17.5 days
Log Kill [7, 12]: 2.6
Median Tumor Mass on Day 14 (Range) [7, 12]: 0 (0-126) mg
Tumor Free day-37 [7, 12]: 0/5
% Body Wt Loss at Nadir ([7]; mouse, in vivo): −8.9%
Day of Nadir ([7]; mouse, in vivo): 11 days
% T/C mass [8, 13]: 0%
Cause of death [8, 13]: marrow toxicity
Drug Deaths [8, 13]: 1/5
Growth Delay [8, 13]: 12.5 days
Log Kill [8, 13]: 3.8
Median Tumor Mass on Day 9 (Range) [8, 13]: 0 (all zeros) mg
Tumor Free day-24 [8, 13]: 0.5
Activity Rating ([8]; Cage 2, IV 40 mg/kg/inj days 1-4, 8 inj, total 320 mg/kg, listed as 22b (racemic)): toxic
% T/C mass [8, 14]: 0%
Activity Rating [8, 14]: +++ (2.0-2.8)
Drug Deaths [8, 14]: 0/5
Growth Delay [8, 14]: 8.5 days
Log Kill [8, 14]: 2.6
Median Tumor Mass on Day 9 (Range) [8, 14]: 0 (all zeros) mg
Tumor Free day-24 [8, 14]: 0/5
% T/C mass [8, 15]: 15.6%
Activity Rating [8, 15]: ++ (1.3-1.9)
Drug Deaths [8, 15]: 0/5
Growth Delay [8, 15]: 6.0 days
Log Kill [8, 15]: 1.8
Median Tumor Mass on Day 9 (Range) [8, 15]: 221 (63-334) mg
Tumor Free day-24 [8, 15]: 0/5
Day of Nadir ([8]; mouse, in vivo): 8 days
Day of full recovery of body weight ([8]; mouse, in vivo): 11 days and 9 days
Duration of neuromuscular toxicity post injection ([8]; mouse, in vivo): over 20 minutes
Neuromuscular toxicity (slowing of nerve conduction) ([8]; mouse, in vivo): substantial post injection neuromuscular toxicity and mild

CC[C@@]1(O)C(=O)OCc2c1cc1n(c2=O)Cc2cc3ccccc3nc2-1 [camptothecin]
activity rating (responsiveness of the tumor to standard agents) [2]: +or +/−
